According to patent publication EP0358766A1, “METHOD OF STERILIZING PLANT ANTHERS” (VSESOJUZNY NAUCHNO-ISSLEDOVATELSKY INST. SELSKOKHOZYAISTV. …, priority 1988, dated 1989):

Tests used:
[1] = test system: Sommerweizens Sorte Botanicheskaya 4; test: Field test of gametocidal activity, spring wheat Botanicheskaya 4; assay type: in vivo, Weizen; conditions: period V, 1% aqueous emulsion, 6 kg/ha in 600 l water; for Prozentsatz des Ansetzens von Samen bei freier Bestäubung: control = 100
Description: (§1) Die gametozide Aktivität der erfindungsgemäßen Sterilisationsmittel war in Feldversuchen in verschiedenen bodenklimatischen Zonen mit Teilstücken von 10 m^2 Größe in dreibis viermaliger Wiederholung festgestellt. Jedes Sterilisationsmittel wurde mindenstens 5 Jahre lang geprüft.
(§2) Die Entwicklung der Perioden der Organogenese wird zytologisch überwacht. Die Behandlung von Pflanzen mit dem Sterilisationsmittel erfolgt am Anfang der fünften Periode der Organogenese nach Kupermann.
(§3) Mit dem Ährenschieben verwirklicht man die Isolierung von Hauptähren und anderen Stockwerken in Pergametbeuteln. Bei Weizen und Tritikale werden Einzelisolatoren benutzt. Bei Roggen schließt man je 1 Ähre von […] verschiedenen nebeneinander befindlichen Pflanzen unter einen gemeinsamen Isolator ein. Bei Hirse wird jede Rispe getrennt isoliert. Der Sterilitätsprozentsatz (X) für Weizen, Roggen, Tritikale und Hirse wird nach der Formel [formula] ermittelt.
(§4) Die Kornzahl in nicht isolierten Ähren von Kontrollpflanzen wird bedingt für 100 % Ansetzen bei freier Bestäubung angenommen.
(§5) Um zuverlässige Angaben zu erhalten, verwendet man 20 bis 25 Isolatoren je Wiederholung für Weizen und Tritikale, 10 bis 15 Isolatoren jeder Wiederholung für Roggen und Hirse.
Pflanzen des Sommerweizens Sorte Botanicheskaya 4 werden in der V. Periode der Organogenese (nach Kupermann) mit einer 1%igen wäßrigen Emulsion von 1,3-Dibrompropan, 1,1,1,3-Tetrabromheptan, 1,1,2-Tribromheptan bzw. 1,2--Dibromheptan behandelt. Die Emulsion enthält 0,5 Masse% C12-C14-Kalziumalkylbenzolsulfonat und 0,01 Masse% Dimethylsulfoxid als Adjuvans. Der Verbrauch an Präparat beträgt 6 kg/ha bei 600 1 Wasserdurchsatz. Als Kontrolle dienen Pflanzen, behandelt mit dem Verdünner ohne Sterilisationsmittel.
Die Prüfergebnisse sind in der Tabelle 4 angegeben. Die gleichen Ergebnisse sind bei der Behandlung des Sommerweizens Sorte Botanicheskaya 4 in der VI. Periode der Organogenese erhalten.

[2] = test system: Tritikale Ampfindiploid 206; test: Field test of gametocidal activity, triticale Amphidiploid 206; assay type: in vivo; conditions: period V, 1% aqueous emulsion, 6 kg/ha in 600 l water; for Prozentsatz des Ansetzens von Samen bei freier Bestäubung: control = 100
Description: as §1, §2, §3, §4, §5
Pflanzen von Tritikale Ampfindiploid 206 werden in der V.Periode der Organogenese (nach Kupermann) mit einer 1%igen wäßrigen Emulsion von 1,1,3-Tribrompropan bzw. 1,2-Dibromheptan behandelt. Die Emulsion enthält 0,5 Masse% C12-C14--Kalziumalkylbenzolsulfonat und 0,01 Masse% Dimethylformamid. Der Verbrauch an Präparat beträgt 6 kg/ha bei 600 1 Wasserdurchsatz. Die Prüfergebnisse sind in der Tabelle 6 angegeben.
Die gleichen Ergebnisse sind bei der Behandlung von Tritikale Amphidiploid 206 in der VI. Periode der Organogenese erhalten.

Sonnenblume Linie BK 119 = test: Field test of pollen sterilisation, sunflower line BK 119; assay type: in vivo
Description: as §1, §2
Zur Kontrolle der chemischen Sterilisation des Sonnenblumenpollens werden für jede Verbindung 45 behandelte Pflanzen je Wiederholung benutzt, wobei 15 Pflanzen zwecks Selbstbestäubung des Blütenkörbchens isoliert werden, 15 Pflanzen mit einem Pollengemisch, gesammelt von 20 bis 25 behandelten isolierten Körbchen, bestäubt werden, und 15 Pflanzen für freie Bestäubung gelassen werden, damit das Ansetzen von Achänen mit dem Pollen der Vaterform kontrolliert worden kann.
Man beurteilt die Pollensterilität von Pflanzen der Sonnenblume nach der Pollenfertilität und -keimfähigkeit, nach den morphologischen Besonderheiten von Spermien und nach der Fähigkeit von Achänen […] bei der Bestäubung der behandelten isolierten Pflanzen mit dem Pollen der unbehandelten väterlichen Form. Die Lebensfähigkeit der Eizelle wird nach der Samenbildung bei behandelten Pflanzen bei freier Bestäubung der väterlichen Form bestimmt.
Pflanzen der Sonnenblume Linie BK 119 werden mit einer 0,2%igen wäßrigen Emulsion von 1,1,3-Tribrompropan bzw. 1,2-Dibrompropan behandelt. Die Emulsion enthält 0,5 Masse% C12-C14 Natriumalkylbenzolsulfonat und 0,01 Masse% Dimethylformamid als Adjuvans. Der Verbrauch an Präparat beträgt 1,2 kg/ha bei 600 1 Wasserdurchsatz. Die Prüfergebnisse sind in der Tabelle 17 angegeben. Die gleichen Ergebnisse sind bei der Behandlung von Sonnenblume Linie BK in der VI. Periode der Organogenese erhalten.
Man verführt analog den Beispielen 88-89. Als Sterilisationsmittel dient eine 0,1%ige wäßrige Emulsion von 1,2--Dibrom-3-chlorpropan. Der Verbrauch an Präparat beträgt 0,6 kg/ha bei 600 1 Wasserdurchsatz. Die Prüfergebnisse sind in der Tabelle 17 angegeben.

[3] = Toxicity in animal test (LD50); design: species or system Mäuse; conditions: in vivo, mice stated only for 1,1,3-Tribrompropan, species not given for the others
Description: Alle erfindungsgemäßen Polybromalkane, die als Sterilisationsmittel zur Verwendung kommen, waren auf die Toxizität im Tierversuch geprüft. Die Prüfergebnisse haben ergeben, daß die angegebenen Verbindungen von schwacher oder mittlerer Toxizität sind.

[4] = test system: tetraploidem Roggen Ukrainskaya tetra; test: Field test of gametocidal activity, tetraploid rye Ukrainskaya tetra; assay type: in vivo; conditions: period V, 1% aqueous emulsion, 6 kg/ha in 600 l water; for Prozentsatz des Ansetzens von Samen bei freier Bestäubung: control = 100
Description: as §1, §2, §3, §4, §5
Pflanzen von tetraploidem Roggen Ukrainskaya tetra werden in der V.Periode der Organogenese (nach Kupermann) mit einer 1%igen wäßrigen Emulsion von 1,2,3-Tribrompropan, 1,2-Dibrompropan bzw. 1,2-Dibrom-3-chlorpropan behandelt. Die Emulsion enthält 0,5 Masse% C12-C14-Kalzium- alkylbenzolsulfonat und 0,01 Masse% Tetrahydrofuran. Der Verbrauch an Präparat beträgt 6 kg/ha bei 600 1 Wasserdurchsatz. Als Kontrolle dienen Pflanzen, behandelt mit dem Verdünner ohne Sterilisationsmittel. Die Prüfergebnisse sind in der Tabelle 8 angegeben. Die gleichen Ergebnisse sind bei der Behandlung von tetraploidem Roggen Ukrainskaya in der VI. Periode der Organogenese erhalten.

[5] = test system: tetraploidem Roggen Jubileinaya; test: Field test of gametocidal activity, tetraploid rye Jubileinaya; assay type: in vivo; conditions: period V, 1% aqueous emulsion, 8 kg/ha in 800 l water; for Prozentsatz des Ansetzens Samen bei freier Bestäubung: control = 100
Description: as §1, §2, §3, §4, §5
Pflanzen von tetraploidem Roggen Jubileinaya werden in der V. Periode der Organogenese mit einer 1%igen wäßrigen Emulsion von 1,2,3-Tribrompropan, 1,2-Dibrompropan bzw. 1,2-Dibrom-3-chlorpropan behandelt. Die Emulsion enthält 0,5 Masse% C12-C14-Kalziumalkylbenzolsulfonat und 0,01 Masse% Dodezylsulfat. Der Verbrauch an Präparat beträgt 8 kg/ha bei 800 1 Wasserdurchsatz. Die Prüfergebnisse sind in der Tabelle 9 angegeben. Die gleichen Ergebnisse sind bei der Behandlung von tetraploidem Roggen Jubileinaya in der VI. Periode der Organogenese erhalten.

[6] = 0.2% aqueous emulsion, 1.2 kg/ha in 600 l water
[7] = 0.1% aqueous emulsion, 0.6 kg/ha in 600 l water

| SMILES | Kornzahl der Ähre bei freier Bestäubung [1] | Kornzahl der Ähre im Isolator [1] | Prozentsatz der Sterilität [1] | Prozentsatz des Ansetzens von Samen bei freier Bestäubung [1] | Kornzahl der Ähre bei freier Bestäubung [2] | Kornzahl der Ähre im Isolator [2] | Prozentsatz der Sterilität [2] | Prozentsatz des Ansetzens von Samen bei freier Bestäubung [2] | Ansetzen bei freier Bestäubung in % (Sonnenblume Linie BK 119; [6]) | Ansetzen im Isolator bei Pollengemischbestäubung in % (Sonnenblume Linie BK 119; [6]) | Pollenstesterilität in % (Sonnenblume Linie BK 119; [6]) | LD50 [3] [mg/kg] | Kornzahl der Ähre bei freier Bestäubung [4] | Kornzahl der Ähre unter Isolator [4] | Prozentsatz der Sterilität [4] | Prozentsatz des Ansetzens von Samen bei freier Bestäubung [4] | Kornzahl der Ähre bei freier Bestäubung [5] | Kornzahl der Ähre unter Isolator [5] | Prozentsatz der Sterilität [5] | Prozentsatz des Ansetzens Samen bei freier Bestäubung [5] | further results |
| --- | --- | --- | --- | --- | --- | --- | --- | --- | --- | --- | --- | --- | --- | --- | --- | --- | --- | --- | --- | --- | --- |
| CCCCC(Br)CC(Br)(Br)Br (stereo not drawn) [Beispiel 9, 1,1,1,3-Tetrabromheptan] | 28,1 | 0,0 | 100,0% | 90,9% | – | – | – | – | – | – | – | – | – | – | – | – | – | – | – | – | – |
| BrCCC(Br)Br [Beispiel 1, 1,1,3-Tribrompropan] | – | – | – | – | 30,1 | 0,0 | 100,0% | 82,2% | 80,4% | 0,0% | 100,0% | 540 | – | – | – | – | – | – | – | – | – |
| CCCCCC(Br)CBr (stereo not drawn) [Beispiel 11, 1,2-Dibromheptan] | 23,6 | 0,0 | 100,0% | 76,4% | 29,2 | 0,0 | 100,0% | 79,8% | – | – | – | – | – | – | – | – | – | – | – | – | – |
| BrCC(Br)CBr [Beispiel 4, 1,2,3-Tribrompropan] | – | – | – | – | – | – | – | – | – | – | – | – | 48,6 | 0,0 | 100,0% | 94,2% | 47,6 | 0,1 | 99,8% | 90,3% | – |
| CC(Br)CBr (stereo not drawn) [Beispiel 5, 1,2-Dibrompropan] | – | – | – | – | – | – | – | – | 88,2% | 0,0% | 100,0% | – | 47,5 | 0,3 | 99,4% | 92,1% | 48,1 | 0,0 | 100,0% | 91,2% | – |
| ClCC(Br)CBr (stereo not drawn) [Beispiel 7, 1,2-Dibrom-3-chlorpropan] | – | – | – | – | – | – | – | – | – | – | – | ~170 | 45,8 | 0,6 | 98,8% | 88,7% | 50,2 | 0,4 | 99,2% | 95,2% | Ansetzen bei freier Bestäubung in % (Sonnenblume Linie BK 119; [7]): 82,0%; Ansetzen im Isolator bei Pollengemischbestäubung in % (Sonnenblume Linie BK 119; [7]): 0,0%; Pollenstesterilität in % (Sonnenblume Linie BK 119; [7]): 100,0% |
